# In publication PMC4596473 (PLoS ONE, 2015):
# “Also recorded” adds a separate entry of the source. Like-named read-outs stand apart in the source and are kept apart here.
# How the values were obtained:
# [1] = human, in vivo, po
# Description: (§1) The plasma concentrations of luseogliflozin and its metabolites were determined by two separate methods at JCL Bioassay Corp. (Hyogo, Japan). Luseogliflozin, its metabolites and its deuterium-labeled internal standard (luseogliflozin-d5, M2-d5 and M17-d5, Taisho Pharmaceutical Co. Ltd., Japan) were extracted from plasma by solid phase extraction. Extracts were analysed by LC-MS/MS. The lower limit of quantification (LLOQ) for luseogliflozin and its metabolites (M2 and M17) in plasma were 0.05 and 0.1 ng/mL, respectively. […] Extracts were analysed by LC-MS/MS. […] Summary statistics were provided for the pharmacokinetic parameters by treatment group.
# [2] = tested on: healthy Japanese subjects; assay: Safety assessment (adverse events, vital signs, ECG, laboratory tests); format: in vivo, human; conditions: for Tolerability: single dose of luseogliflozin 5 mg and 20 mg
# Description: Safety assessments included recording of adverse events, vital signs (body temperature, blood pressure, and pulse rate), physical examinations, ECGs, and clinical laboratory tests.
# [3] = tested on: healthy Japanese subjects; assay: Thorough QT/QTc study: 12-lead ECG assessment of QTcF/QTcB; format: in vivo, human; conditions: for Least squares mean ΔΔQTcF: moxifloxacin 400 mg single dose; for Upper bound of the 90% two-sided CI of the least squares mean ΔΔQTcB: all time points, data not shown; for Upper bound of the 90% two-sided CI for the least squares mean ΔΔQTcF: single dose, all time points 0.5-24 h post-dose
# Description: The study was conducted at Kitasato Institute Hospital (Tokyo, Japan) from July 6th 2011 to September 15th 2011. […] All treatments were administered with 200 mL of water after at least 10-hour overnight fast, and no food was allowed until 4 hours after dosing. All treatments were administered in a randomized sequence. The random assignment manager randomly assigned treatment groups using the Williams Design to determine the order of treatments within each treatment sequence by the time of study drug administration to the first admission group. A randomization code was created for each treatment sequence sealed and securely retained until unblinding and were provided to the sponsor after unblinding.
# Serial triplicate digital 12-lead electrocardiograms (ECGs) were recorded over 5 min in the supine position after resting for 10 min for each time point (pre-dose [50–70 min before dosing], 0.5, 1, 2, 3, 4, 6, 8, and 24 h post-dose) using an electrocardiograph (ELI250, Mortara). The same model of 12-lead digital surface ECG monitor was employed for all subjects at all time points. The same lead was used throughout the study. The interval between the start of each recording was ≥1 min, and ECG was recorded for 10 s for each chart. All 12-lead ECG charts for QT/QTc analysis were sent electronically to the central ECG analysis facility. RR and QT intervals were measured in accordance with the procedures of the facility. The time of recording and subject identification information were blinded before measurement. QTc intervals were corrected by Fridericia’s (QTcF = QT/RR^1/3) and Bazett’s (QTcB = QT/RR^1/2) formulae. QTcF was the primary endpoint, and QTcB was the secondary endpoint.
# Treatment comparisons between luseogliflozin therapeutic dose or supratherapeutic dose and placebo (ΔΔQTc) were analyzed using a linear mixed model with treatment, sequence, period, scheduled time, and the interaction of treatment with scheduled time as fixed effects, subject as a random effect, and baseline QTc as a covariate. The effect of luseogliflozin on QT/QTc interval prolongation was regarded as negative when the upper bound of the 90% two-sided confidence interval (CI) for the mean effect on the QT/QTc interval […] 10 ms at all time points in the luseogliflozin groups.
# A categorical analysis was also performed. New onset of QTc greater than 450, 480, or 500 ms after dosing or change from baseline in QTc greater than 30 or 60 ms was categorized in each treatment group.
# clinical = conditions: human, in vivo, po
# Description: as §1
# rats = conditions: 26-week repeated dose; cited from earlier work
# [4] = tested on: Japanese patients with type 2 diabetes mellitus; conditions: cited from earlier work
# SGLT1 = conditions: read-out: 50% inhibitory concentration (IC50); SGLT1, human expressing cells, nonclinical study; cited from earlier work
# [5] = cited from earlier work
# SGLT2 = conditions: read-out: 50% inhibitory concentration (IC50); SGLT2, human expressing cells, nonclinical study; cited from earlier work
# [6] = tested on: papillary muscle of anesthetized guinea pigs; conditions: non-clinical study; cited from earlier work
# [7] = tested on: human ether-a-go-go-related gene (hERG) current; assay: hERG current in hERG-transfected HEK293 cells in vitro; format: cell-based; conditions: versus Cmax of a 5 mg dose in diabetic subjects in a clinical study
# Description: In non-clinical studies, effects of luseogliflozin on the cardiovascular system were investigated via the human ether-a-go-go-related gene (hERG) current in hERG-transfected human embryonic kidney cells (HEK293 cells) in vitro; action potential in the papillary muscle of anesthetized guinea pigs; and blood pressure, heart rate, and electrocardiogram (ECG) in conscious beagle dogs.
# dogs = conditions: 52-week repeated dose; cited from earlier work
# [8] = tested on: human ether-a-go-go-related gene (hERG) current; conditions: at 9.6 μmol/L; non-clinical study; cited from earlier work
# conscious beagle dogs = conditions: non-clinical study; cited from earlier work
# [9] = TS-071 25 mg single oral dose, healthy adult males, ref Investigator's Brochure of TS-071 (Version 6)
# [10] = luseogliflozin 20 mg (supratherapeutic dose)
smiles,measurement,setting,value
"COc1c(N2C[C@@H]3CCCN[C@@H]3C2)c(F)cc2c(=O)c(C(=O)O)cn(C3CC3)c12 [Moxifloxacin, moxifloxacin, reference compound]",Tmax,[1]; 400 mg,2.19 ± 1.09 h
same,Percentage of subjects with an adverse event,[2]; moxifloxacin 400 mg group,72.2%
same,"AEs, n (number of events)","[2]; moxifloxacin 400 mg, n = 54",56 n
same,"Drug-related AEs, n (number of events)","[2]; moxifloxacin 400 mg, n = 54",36 n
same,Correlation between ΔΔQTcF and plasma concentration of unchanged compound,[3]; moxifloxacin 400 mg,positive relationship; also recorded: positive correlation
same,Hysteresis of mean ΔΔQTcF versus mean plasma concentration,[3]; moxifloxacin 400 mg,counter-clockwise hysteresis effect; also recorded: counterclockwise hysteresis
same,Least squares mean ΔΔQTcF,[3]; 3 and 4 hour post-dose,13.4 ms
same,Least squares mean ΔΔQTcF,[3]; 24 h post-dose,7.7 ms
same,"Number (%) of Subjects, QTcF Increase >30 ms from baseline","[3]; moxifloxacin 400 mg, n = 54",0 (0.0) n (%)
same,"Number (%) of Subjects, QTcF Increase >60 ms from baseline","[3]; moxifloxacin 400 mg, n = 54",0 (0.0) n (%)
same,"Number (%) of Subjects, QTcF Value >450 ms","[3]; moxifloxacin 400 mg, n = 54",7 (13.0) n (%)
same,"Number (%) of Subjects, QTcF Value >480 ms","[3]; moxifloxacin 400 mg, n = 54",0 (0.0) n (%)
same,"Number (%) of Subjects, QTcF Value >500 ms","[3]; moxifloxacin 400 mg, n = 54",0 (0.0) n (%)
same,"Number (%) of Subjects, QTcF Value >450 ms","[3]; moxifloxacin 400 mg, n = 54, listed as moxifloxacin",7 n (%)
same,Regression of ΔΔQTcF (msec) on plasma concentration (μg/mL),"[3]; moxifloxacin 400 mg, text in Fig 6",ΔΔQTcF = 3.42+3.03xConc.
same,AUC(0-inf),clinical; 400 mg,60000 ± 11100 ng·h/mL
same,Cmax,clinical; 400 mg,3880 ± 939 ng/mL
same,Tmax,clinical; 400 mg,2.2 h
COc1cc(C)c(Cc2ccc(OCC(=O)O)cc2)cc1[C@@H]1S[C@H](CO)[C@@H](O)[C@H](O)[C@H]1O [M17],AUCinf,[1]; 5 mg,120 ± 41.9 ng·h/mL
same,Cmax,[1]; 5 mg,6.02 ± 2.10 ng/mL
same,T1/2,[1]; 5 mg,10.9 ± 1.49 h
same,Tmax,[1]; 5 mg,4.89 ± 1.14 h
same,AUCinf,[1]; 20 mg,487 ± 196 ng·h/mL
same,Cmax,[1]; 20 mg,24.3 ± 9.98 ng/mL
same,T1/2,[1]; 20 mg,10.9 ± 1.71 h
same,Tmax,[1]; 20 mg,5.13 ± 1.14 h
"CCOc1ccc(Cc2cc([C@@H]3S[C@H](CO)[C@@H](O)[C@H](O)[C@H]3O)c(OC)cc2C)cc1 [Luseogliflozin, (1S)-1,5-anhydro-1-[5-(4-ethoxybenzyl)-2-methoxy-4-methylphenyl]-1-thio-D-glucitol]",Dose levels with diarrhoea or soft stools,rats,≥ 100 mg/kg
same,No observed adverse effect level,rats,4 mg/kg
same,Urinary glucose excretion in comparison to placebo,"[4]; 0.5, 1, 2.5 and 5 mg/day, Japanese patients with type 2 diabetes mellitus",significantly increased
same,Observed Cmax of unchanged TS-071,"[4]; Day 7, 7-day repeated administration of 5 mg, patients with type 2 diabetes",299 ng/mL
same,IC50,SGLT1,2900 nM
same,Mean Tmax,"[5]; TS-071 15 mg single oral dose, healthy adult males, ref Investigator's Brochure of TS-071 (Version 6)",1.56 h
same,Mean T1/2,[5]; [9],12.6 h
same,Mean Tmax,[5]; [9],2.25 h
same,Time to maximum plasma concentration (Tmax),[5]; single dose 1–25 mg,≤ 2.25 h
same,IC50,SGLT2,2.26 nM
same,Effect on the cardiovascular system,[6],No effect
same,Ratio of hERG test concentration (9.6 μmol/L) to the maximum observed Cmax,[7],approximately 370 times
same,Tmax,[1]; 5 mg,1.34 ± 0.935 h
same,T1/2,[1]; 20 mg,9.90 ± 1.22 h
same,Dose levels with diarrhoea or soft stools,dogs,≥ 10 mg/kg
same,No observed adverse effect level,dogs,2 mg/kg
same,"Adverse events moderate in severity, number of events",[2]; 5 mg luseogliflozin group,two
same,Subjects with first-degree atrioventricular block,[2]; 5 mg luseogliflozin group,one
same,Prolonged PR interval in the subject with first-degree atrioventricular block,"[2]; 48 h after administration of luseogliflozin 5 mg, one subject",452 ms
same,Relation of cardiovascular adverse events to the study drug,[2]; after administration of luseogliflozin,not related to the study drug
same,Percentage of subjects with an adverse event,[2]; luseogliflozin 5 mg group,41.1%
same,"AEs, n (number of events)","[2]; luseogliflozin 5 mg, n = 56",48 n
same,"Drug-related AEs, n (number of events)","[2]; luseogliflozin 5 mg, n = 56",20 n
same,Percentage of subjects with an adverse event,[2]; luseogliflozin 20 mg group,35.8%
same,"AEs, n (number of events)","[2]; luseogliflozin 20 mg, n = 53",32 n
same,"Drug-related AEs, n (number of events)","[2]; luseogliflozin 20 mg, n = 53",16 n
same,Tolerability,[2],well tolerated
same,Tolerability,[2]; listed as luseogliflozin,safe and well tolerated
same,Suppression of hERG current,[8],7.7%
same,Effect on the cardiovascular system,conscious beagle dogs,No effect
same,Upper bound of the 90% two-sided CI of the least squares mean ΔΔQTcB,[3]; luseogliflozin 5 mg (anticipated therapeutic dose),< 10 ms
same,Upper bound of the 90% two-sided CI for the least squares mean ΔΔQTcF,[3]; luseogliflozin 5 mg (therapeutic dose),less than 10 ms
same,Correlation between ΔΔQTcF and plasma concentration of unchanged compound,[3]; luseogliflozin 5 mg and 20 mg,No meaningful correlation; also recorded: no relationship
same,Hysteresis of mean ΔΔQTcF versus mean plasma concentration,[3]; luseogliflozin 5 mg and 20 mg,no clear hysteresis effect
same,"Number (%) of Subjects, QTcF Increase >30 ms from baseline","[3]; luseogliflozin 5 mg, n = 56",0 (0.0) n (%)
same,"Number (%) of Subjects, QTcF Increase >60 ms from baseline","[3]; luseogliflozin 5 mg, n = 56",0 (0.0) n (%)
same,"Number (%) of Subjects, QTcF Value >450 ms","[3]; luseogliflozin 5 mg, n = 56",1 (1.8) n (%)
same,"Number (%) of Subjects, QTcF Value >480 ms","[3]; luseogliflozin 5 mg, n = 56",0 (0.0) n (%)
same,"Number (%) of Subjects, QTcF Value >500 ms","[3]; luseogliflozin 5 mg, n = 56",0 (0.0) n (%)
same,Upper bound of the 90% two-sided CI for the least squares mean ΔΔQTcF,[3]; [10],less than 10 ms
same,Upper bound of the 90% two-sided CI of the least squares mean ΔΔQTcB,[3]; [10],< 10 ms
same,"Number (%) of Subjects, QTcF Increase >30 ms from baseline","[3]; luseogliflozin 20 mg, n = 53",0 (0.0) n (%)
same,"Number (%) of Subjects, QTcF Increase >60 ms from baseline","[3]; luseogliflozin 20 mg, n = 53",0 (0.0) n (%)
same,"Number (%) of Subjects, QTcF Value >450 ms","[3]; luseogliflozin 20 mg, n = 53",0 (0.0) n (%)
same,"Number (%) of Subjects, QTcF Value >480 ms","[3]; luseogliflozin 20 mg, n = 53",0 (0.0) n (%)
same,"Number (%) of Subjects, QTcF Value >500 ms","[3]; luseogliflozin 20 mg, n = 53",0 (0.0) n (%)
same,AUC(0-inf),clinical; 5 mg,2110 ± 418 ng·h/mL
same,Cmax,clinical; 5 mg,209 ± 48.9 ng/mL
same,half-life,clinical; 5 mg,10 ± 1.18 h
same,Tmax,clinical; 5 mg,1.3 h
same,AUC(0-inf),clinical; 20 mg,8650 ± 1780 ng·h/mL
same,Cmax,clinical; 20 mg,787 ± 186 ng/mL
same,Tmax,clinical; 20 mg,1.5 ± 0.961 h
COc1cc(C)c(Cc2ccc(O)cc2)cc1[C@@H]1S[C@H](CO)[C@@H](O)[C@H](O)[C@H]1O [M2],AUCinf,[1]; 5 mg,257 ± 48.3 ng·h/mL
same,Cmax,[1]; 5 mg,8.85 ± 1.95 ng/mL
same,T1/2,[1]; 5 mg,13.8 ± 2.61 h
same,Tmax,[1]; 5 mg,5.71 ± 2.14 h
same,AUCinf,[1]; 20 mg,1030 ± 212 ng·h/mL
same,Cmax,[1]; 20 mg,35.1 ± 7.36 ng/mL
same,T1/2,[1]; 20 mg,13.9 ± 2.53 h
same,Tmax,[1]; 20 mg,5.83 ± 1.90 h
